Legend:
hNaV1.2 (SCN2A) = target: T1, hNaV1.2 (SCN2A) (Homo sapiens, UniProt Q99250); assay: Use-dependent inhibition of the CNS Nav1.2 sodium channel; type: cell-based; conditions: use-dependent block, 25 Hz, pulse 20, read-out: Nav1.2 UDB 25 Hz 10 uM
T1 construct: expressed in transfected cells
Procedure: HEK-293 cells stably expressing wild-type (WT) hNaV1.2 (SCN2A NCBI # NM_021007.2, SCN1B NCBI # NM_001037.4, SCN2B NCBI # NM_004588.2) were used to record INa. Cells are maintained with standard tissue culture procedures and stable channel expression is maintained with 800 ug/mL G418 and 3 ug/mL Puromycin in the culture medium. Unless otherwise noted, all reagents are purchased from Sigma-Aldrich (St Louis, Mo., U.S.A.).
Assays measuring Use-Dependent Block (UDB) of Nav1.2 are performed on an automated electrophysiology platform, QPatch 16X or QPatch HT (Sophion Bioscience, Copenhagen, Denmark), using the whole cell patch clamp technique to measure currents through the cell membrane. Series resistance compensation is set to 100% and series resistance and whole-cell compensation are performed automatically. Currents stored in the Sophion Bioscience Oracle database (Sophion Bioscience, Copenhagen, Denmark). Analysis is performed using QPatch Assay software and data are compiled in Excel 2010 (Microsoft, Seattle, Wash., U.S.A.).
The internal (pipette) solution consists of (in mM) 105 CsF, 10 NaF, 20 CsCl, 2 EGTA, 10 HEPES, 10 Dextrose with a pH of 7.35 and osmolarity of 300 mOsmol/kg. The external (bath) solution contains in (mM): 145 NaCl, 4 KCl, 1.8 CaCl2, 1 MgCl2, 10 dextrose, 10 HEPES, with a pH of 7.35 and osmolarity of 310 mOsmol/kg. Experiments are carried out at 23-25° C.
Compound stocks are routinely made by the Gilead Sample Bank in vials to 10 mM in dimethyl sulfoxide (DMSO). In some cases, when compounds are not soluble in DMSO, they are made in 100% ethanol. Stocks are sonicated as necessary. […]
Cells are allowed to stabilize for 10 min after establishment of the whole-cell configuration before current is measured. The test compound is applied 2 times at 60 second intervals. After the second compound addition, a 200 second wait period was imposed to allow for equilibration. Leak currents are subtracted by using an online P/4 procedure and all currents are low-pass Bessel filtered at 5 kHz and digitized at […].
Results are presented as mean percentage inhibition.
Use-dependent block of Nav1.2 peak current is measured during pulse number 20 of a voltage pulse train (0 mV, 20 ms, 20 pulses, 25 Hz) from a holding potential of −120 mV.
Currents are normalized to the peak current recorded in response to the first pulse in each frequency train. The voltage protocol for UDB was performed in the absence and presence of compound and percentage inhibition was calculated with respect to the compound free condition.

[1] = target: wild-type human cardiac sodium channel, hNav1.5 (Homo sapiens, UniProt Q14524); assay: Late INa screening assay (QPatch whole cell patch clamp, Tefluthrin-induced late current); type: cell-based; conditions: HEK293 hNav1.5, percent block of late INa
Chain of wild-type human cardiac sodium channel, hNav1.5 (Q14524 whole entry): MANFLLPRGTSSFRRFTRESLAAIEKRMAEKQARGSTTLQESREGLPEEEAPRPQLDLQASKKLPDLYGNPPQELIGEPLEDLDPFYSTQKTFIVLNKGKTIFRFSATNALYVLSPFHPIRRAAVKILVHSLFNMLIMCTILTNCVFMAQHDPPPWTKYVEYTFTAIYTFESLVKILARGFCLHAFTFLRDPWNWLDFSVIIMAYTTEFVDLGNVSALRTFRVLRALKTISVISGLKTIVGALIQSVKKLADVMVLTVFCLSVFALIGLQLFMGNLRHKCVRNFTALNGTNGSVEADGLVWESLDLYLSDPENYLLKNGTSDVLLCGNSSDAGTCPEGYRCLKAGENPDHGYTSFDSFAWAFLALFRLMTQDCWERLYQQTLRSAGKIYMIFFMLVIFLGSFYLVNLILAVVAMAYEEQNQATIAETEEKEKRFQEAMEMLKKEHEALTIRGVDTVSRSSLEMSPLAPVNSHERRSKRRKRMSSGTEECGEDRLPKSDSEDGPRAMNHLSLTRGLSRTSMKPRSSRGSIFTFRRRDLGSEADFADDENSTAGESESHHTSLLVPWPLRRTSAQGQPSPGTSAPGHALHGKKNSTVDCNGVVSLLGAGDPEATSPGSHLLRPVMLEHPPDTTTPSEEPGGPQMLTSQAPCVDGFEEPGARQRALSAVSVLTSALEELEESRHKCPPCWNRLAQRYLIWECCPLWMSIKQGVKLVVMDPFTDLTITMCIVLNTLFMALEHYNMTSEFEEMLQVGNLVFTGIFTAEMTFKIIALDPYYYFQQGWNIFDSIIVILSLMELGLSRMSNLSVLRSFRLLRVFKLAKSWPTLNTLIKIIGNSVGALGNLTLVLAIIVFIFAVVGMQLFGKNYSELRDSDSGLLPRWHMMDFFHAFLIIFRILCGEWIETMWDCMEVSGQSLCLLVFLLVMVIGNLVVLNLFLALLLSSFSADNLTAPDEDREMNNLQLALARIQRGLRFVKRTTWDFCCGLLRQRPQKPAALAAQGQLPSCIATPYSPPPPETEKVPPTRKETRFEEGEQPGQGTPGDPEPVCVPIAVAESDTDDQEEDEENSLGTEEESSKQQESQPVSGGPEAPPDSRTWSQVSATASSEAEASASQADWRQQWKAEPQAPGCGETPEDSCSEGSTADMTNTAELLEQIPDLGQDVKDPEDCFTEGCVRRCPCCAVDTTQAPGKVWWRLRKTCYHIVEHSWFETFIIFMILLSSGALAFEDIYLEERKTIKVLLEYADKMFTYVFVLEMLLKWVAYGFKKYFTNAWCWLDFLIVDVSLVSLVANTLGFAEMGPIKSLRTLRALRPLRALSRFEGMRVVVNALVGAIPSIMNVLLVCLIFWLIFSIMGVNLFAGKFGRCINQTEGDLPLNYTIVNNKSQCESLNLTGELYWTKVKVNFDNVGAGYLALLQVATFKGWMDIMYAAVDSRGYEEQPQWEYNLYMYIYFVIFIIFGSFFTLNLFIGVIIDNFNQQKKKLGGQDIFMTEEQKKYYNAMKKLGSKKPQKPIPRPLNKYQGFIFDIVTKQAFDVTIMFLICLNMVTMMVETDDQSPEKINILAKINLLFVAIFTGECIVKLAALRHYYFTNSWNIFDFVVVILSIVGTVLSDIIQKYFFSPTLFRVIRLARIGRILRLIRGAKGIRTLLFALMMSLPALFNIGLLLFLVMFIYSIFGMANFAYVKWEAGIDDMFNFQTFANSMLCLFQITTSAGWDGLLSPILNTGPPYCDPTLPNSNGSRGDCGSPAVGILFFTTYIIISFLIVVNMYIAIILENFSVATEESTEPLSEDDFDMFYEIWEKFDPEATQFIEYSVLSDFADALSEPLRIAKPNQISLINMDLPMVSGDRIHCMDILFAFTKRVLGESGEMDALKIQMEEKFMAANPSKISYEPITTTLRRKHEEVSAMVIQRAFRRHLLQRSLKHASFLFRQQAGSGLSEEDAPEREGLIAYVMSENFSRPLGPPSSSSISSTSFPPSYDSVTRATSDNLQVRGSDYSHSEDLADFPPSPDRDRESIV
Procedure, shortened: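 HEK293 cells stably expressing hNav1.5 without beta subunits were whole-cell patch clamped at 23-25 °C, stepping from −120 to −20 mV for 250 ms at 0.1 Hz. Late current (240–265 ms) was induced with 10 μM Tefluthrin, and compounds were added typically at 0.3 or 1 μM. Percent block was taken against 0 Na baseline with rundown correction.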

T1 sequence (Q99250 whole entry): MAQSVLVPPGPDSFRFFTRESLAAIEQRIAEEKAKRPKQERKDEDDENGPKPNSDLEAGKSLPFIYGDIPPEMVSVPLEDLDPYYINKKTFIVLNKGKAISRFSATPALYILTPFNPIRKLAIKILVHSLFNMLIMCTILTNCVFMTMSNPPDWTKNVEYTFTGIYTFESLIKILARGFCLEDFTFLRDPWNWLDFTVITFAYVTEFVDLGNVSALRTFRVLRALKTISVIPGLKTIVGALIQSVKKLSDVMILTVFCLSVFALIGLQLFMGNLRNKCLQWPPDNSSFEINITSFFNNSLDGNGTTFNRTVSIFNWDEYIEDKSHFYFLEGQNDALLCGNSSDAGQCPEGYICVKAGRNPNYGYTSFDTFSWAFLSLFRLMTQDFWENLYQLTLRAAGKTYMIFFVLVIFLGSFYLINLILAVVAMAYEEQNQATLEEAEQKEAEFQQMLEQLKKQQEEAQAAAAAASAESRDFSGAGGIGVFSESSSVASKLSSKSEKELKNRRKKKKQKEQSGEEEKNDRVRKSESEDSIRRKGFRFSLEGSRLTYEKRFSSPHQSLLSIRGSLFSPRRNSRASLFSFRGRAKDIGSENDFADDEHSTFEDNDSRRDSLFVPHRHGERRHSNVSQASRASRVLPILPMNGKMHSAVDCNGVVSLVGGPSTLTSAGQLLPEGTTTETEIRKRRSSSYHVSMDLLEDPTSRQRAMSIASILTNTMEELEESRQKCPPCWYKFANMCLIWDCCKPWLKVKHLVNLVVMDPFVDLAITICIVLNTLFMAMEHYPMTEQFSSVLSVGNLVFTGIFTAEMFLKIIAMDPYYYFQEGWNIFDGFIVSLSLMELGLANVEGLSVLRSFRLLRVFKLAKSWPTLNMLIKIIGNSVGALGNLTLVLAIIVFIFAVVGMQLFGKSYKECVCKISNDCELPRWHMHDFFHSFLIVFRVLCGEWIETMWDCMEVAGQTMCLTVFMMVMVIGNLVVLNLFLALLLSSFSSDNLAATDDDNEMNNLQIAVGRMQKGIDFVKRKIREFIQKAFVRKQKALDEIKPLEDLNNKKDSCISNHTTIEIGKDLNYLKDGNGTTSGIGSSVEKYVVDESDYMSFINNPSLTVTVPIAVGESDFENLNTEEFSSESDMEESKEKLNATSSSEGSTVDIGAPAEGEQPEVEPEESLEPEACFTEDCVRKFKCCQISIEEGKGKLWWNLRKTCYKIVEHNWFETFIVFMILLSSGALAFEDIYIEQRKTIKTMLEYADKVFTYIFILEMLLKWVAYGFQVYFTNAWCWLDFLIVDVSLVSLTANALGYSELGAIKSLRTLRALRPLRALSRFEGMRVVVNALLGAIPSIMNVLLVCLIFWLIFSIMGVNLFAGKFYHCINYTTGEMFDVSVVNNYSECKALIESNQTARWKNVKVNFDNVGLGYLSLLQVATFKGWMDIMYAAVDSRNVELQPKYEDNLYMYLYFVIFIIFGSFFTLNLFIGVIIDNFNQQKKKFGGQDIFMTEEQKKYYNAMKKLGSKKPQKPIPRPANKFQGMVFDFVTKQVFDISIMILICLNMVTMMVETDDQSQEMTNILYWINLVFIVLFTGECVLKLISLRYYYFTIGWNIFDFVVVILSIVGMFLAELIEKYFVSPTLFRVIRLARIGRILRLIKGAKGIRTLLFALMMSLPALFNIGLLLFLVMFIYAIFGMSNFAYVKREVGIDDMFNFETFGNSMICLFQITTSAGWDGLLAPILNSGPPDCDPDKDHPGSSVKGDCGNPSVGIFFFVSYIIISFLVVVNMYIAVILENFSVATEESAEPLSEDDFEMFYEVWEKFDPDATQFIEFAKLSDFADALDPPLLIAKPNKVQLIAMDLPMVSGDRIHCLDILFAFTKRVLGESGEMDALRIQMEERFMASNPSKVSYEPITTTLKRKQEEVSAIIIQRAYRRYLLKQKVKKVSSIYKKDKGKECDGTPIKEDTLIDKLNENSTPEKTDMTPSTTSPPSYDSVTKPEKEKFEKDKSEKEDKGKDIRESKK
T1 sequence (Q07699 19-218 partner): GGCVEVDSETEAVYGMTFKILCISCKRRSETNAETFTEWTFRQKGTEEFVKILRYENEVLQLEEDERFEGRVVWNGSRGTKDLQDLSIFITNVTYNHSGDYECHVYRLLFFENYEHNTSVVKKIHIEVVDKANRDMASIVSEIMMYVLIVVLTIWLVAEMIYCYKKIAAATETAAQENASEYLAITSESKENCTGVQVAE
T1 sequence (O60939 30-215 partner): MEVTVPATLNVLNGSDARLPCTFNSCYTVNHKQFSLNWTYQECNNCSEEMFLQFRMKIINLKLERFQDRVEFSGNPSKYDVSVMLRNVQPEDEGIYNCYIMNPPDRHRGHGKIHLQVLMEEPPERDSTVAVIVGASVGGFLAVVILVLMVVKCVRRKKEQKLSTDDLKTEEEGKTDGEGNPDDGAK

| SMILES | inhibition at 10 µM (hNaV1.2 (SCN2A)) | inhibition at 0.3 µM [1] | inhibition at 1 µM [1] |
| --- | --- | --- | --- |
| C[C@@H](N)COc1noc2ccc(-c3ccc(OC(F)(F)F)cc3)cc12 [Example 117, (R)-1-((5-(4-(trifluoromethoxy)phenyl)benzo[d]isoxazol-3-yl)oxy)propan-2-amine] | 88.4% | 39.4% | 78.1% |
| CN1CCN(c2noc3ccc(-c4ccc(OC(F)(F)F)cc4)cc23)CC1 [Example 127, 3-(4-methylpiperazin-1-yl)-5-(4-(trifluoromethoxy)phenyl)benzo[d]isoxazole] | 76.5% | – | 37.4% |
| OCc1cn(-c2noc3ccc(-c4ccc(OC(F)(F)F)cc4)cc23)cn1 [Example 146, (1-(5-(4-(trifluoromethoxy)phenyl)benzo[d]isoxazol-3-yl)-1H-imidazol-4-yl)methanol] | 75.8% | – | 48.4% |
| Cc1ccnc(COc2noc3ccc(-c4ccc(OC(F)(F)F)cc4)cc23)n1 [Example 5, 3-((4-methylpyrimidin-2-yl)methoxy)-5-(4-(trifluoromethoxy)phenyl)benzo[d]isoxazole] | < 5% | 38.2% | 54.5% |
| CC(=O)N1CC(COc2noc3ccc(-c4ccc(OC(F)(F)F)cc4)cc23)C1 [Example 110, 1-(3-(((5-(4-(trifluoromethoxy)phenyl)benzo[d]isoxazol-3-yl)oxy)methyl)azetidin-1-yl)ethan-1-one] | 67.3% | 25.7% | 62.7% |
| C[C@H](COc1noc2ccc(-c3ccc(OC(F)(F)F)cc3)cc12)N1CCCC1=O [Example 119, (R)-1-(1-((5-(4-(trifluoromethoxy)phenyl)benzo[d]isoxazol-3-yl)oxy)propan-2-yl)pyrrolidin-2-one] | 52.3% | – | 51.2% |
| Cc1cc(-c2ccc3onc(OCc4ncccn4)c3c2)ccc1OC(F)(F)F [Example 7, 5-(3-methyl-4-(trifluoromethoxy)phenyl)-3-(pyrimidin-2-ylmethoxy)benzo[d]isoxazole] | < 5% | – | 47.5% |
| FC(F)(F)Oc1ccc(-c2ccc3onc(OC[C@H]4COCCN4)c3c2)cc1 [Example 114, (R)-3-(morpholin-3-ylmethoxy)-5-(4-(trifluoromethoxy)phenyl)benzo[d]isoxazole] | 87% | 22.5% | 61.2% |
| FC(F)(F)c1ccc(-c2ccc3onc(OCc4ncccn4)c3c2)cc1 [Example 9, 3-(pyrimidin-2-ylmethoxy)-5-(4-(trifluoromethyl)phenyl)benzo[d]isoxazole] | < 5% | 36.4% | 58.9% |
| Cc1cc(-c2ccc(OC(F)(F)F)cc2)cc2c(OCc3ncccn3)noc12 [Example 16, 7-methyl-3-(pyrimidin-2-ylmethoxy)-5-(4-(trifluoromethoxy)phenyl)benzo[d]isoxazole] | 18% | – | 54.2% |
| CC(C)(C)c1cn(-c2noc3ccc(-c4ccc(OC(F)(F)F)cc4)cc23)cn1 [Example 143, 3-(4-(tert-butyl)-1H-imidazol-1-yl)-5-(4-(trifluoromethoxy)phenyl)benzo[d]isoxazole] | 57.1% | 35.9% | 60.3% |
| Cc1cn(-c2noc3ccc(-c4ccc(OC(F)(F)F)cc4)cc23)cn1 [Example 139, 3-(4-methyl-1H-imidazol-1-yl)-5-(4-(trifluoromethoxy)phenyl)benzo[d]isoxazole] | 26.1% | – | 41.2% |
| FC(F)(F)Oc1ccc(-c2ccc3onc(Oc4ncccn4)c3c2)cc1 [Example 124, 3-(pyrimidin-2-yloxy)-5-(4-(trifluoromethoxy)phenyl)benzo[d]isoxazole] | 44.9% | – | 53.7% |
| Fc1cccnc1COc1noc2ccc(-c3ccc(OC(F)(F)F)cc3)cc12 [Example 94, 3-((3-fluoropyridin-2-yl)methoxy)-5-(4-(trifluoromethoxy)phenyl)benzo[d]isoxazole] | < 5% | 35.1% | 58.7% |
| Cc1cc(-c2ccc(OC(F)(F)F)cc2)cc2c(OCc3cn(C)nn3)noc12 [Example 87, 7-methyl-3-((1-methyl-1H-1,2,3-triazol-4-yl)methoxy)-5-(4-(trifluoromethoxy)phenyl)benzo[d]isoxazole] | 87% | 18.4% | 62.7% |
| COc1ccnc(COc2noc3ccc(-c4ccc(OC(F)(F)F)cc4)cc23)n1 [Example 67, 3-((4-methoxypyrimidin-2-yl)methoxy)-5-(4-(trifluoromethoxy)phenyl)benzo[d]isoxazole] | < 5% | 54.4% | 77.4% |
| COc1cc2onc(OCc3ncccn3)c2cc1-c1ccc(F)c(Cl)c1 [Example 15, 5-(3-chloro-4-fluorophenyl)-6-methoxy-3-(pyrimidin-2-ylmethoxy)benzo[d]isoxazole] | < 5% | – | 32.2% |
| FC(F)(F)Oc1ccc(-c2ccc3onc(-n4cnc(-c5ccccc5)c4)c3c2)cc1 [Example 142, 3-(4-phenyl-1H-imidazol-1-yl)-5-(4-(trifluoromethoxy)phenyl)benzo[d]isoxazole] | 65% | – | 44% |
| Cc1cc(COc2noc3ccc(-c4ccc(OC(F)(F)F)cc4)cc23)on1 [Example 102, 3-((3-methylisoxazol-5-yl)methoxy)-5-(4-(trifluoromethoxy)phenyl)benzo[d]isoxazole] | 20.6% | – | 43.1% |
| Fc1cc(-c2ccc(OC(F)(F)F)cc2)cc2c(OCc3nnc(C4CC4)o3)noc12 [Example 104, 3-((5-cyclopropyl-1,3,4-oxadiazol-2-yl)methoxy)-7-fluoro-5-(4-(trifluoromethoxy)phenyl)benzo[d]isoxazole] | 57% | – | 38.6% |
| FC(F)(F)Oc1ccc(-c2ccc3onc(NCc4ncco4)c3c2)cc1 [Example 156, N-(oxazol-2-ylmethyl)-5-(4-(trifluoromethoxy)phenyl)benzo[d]isoxazol-3-amine] | 10.6% | 37.9% | 62.8% |
| CC(=O)N1CCC[C@H]1COc1noc2ccc(-c3ccc(OC(F)(F)F)cc3)cc12 [Example 109, (S)-1-(2-(((5-(4-(trifluoromethoxy)phenyl)benzo[d]isoxazol-3-yl)oxy)methyl)pyrrolidin-1-yl)ethan-1-one] | 39.3% | 25.3% | 65.7% |
| CC(=O)N1CCOC[C@@H]1COc1noc2ccc(-c3ccc(OC(F)(F)F)cc3)cc12 [Example 116, (R)-1-(3-(((5-(4-(trifluoromethoxy)phenyl)benzo[d]isoxazol-3-yl)oxy)methyl)morpholino)ethan-1-one] | 62.3% | – | 48.3% |
| O=C1NCC[C@H]1Oc1noc2ccc(-c3ccc(OC(F)(F)F)cc3)cc12 [Example 72, (R)-3-((5-(4-(trifluoromethoxy)phenyl)benzo[d]isoxazol-3-yl)oxy)pyrrolidin-2-one] | 75.4% | 14% | 57.4% |

Source: patent US9416115B2, “Fused heterocyclic compounds as ion channel modulators” (Gilead Sciences, Inc., priority 2013, dated 2016)
